Laboratory results reported in US8759482B2, “Kinetically efficient substrate for lipoic acid ligase” (Massachusetts Institute of Technology, priority 2009, dated 2014).

How the values were obtained:
[1] = molecular target: T1, Escherichia coli lipoic acid ligase (Lp1A) (Escherichia coli, UniProt P32099); assay: Lp1A-catalyzed lipoylation kinetics (kcat, Km) by HPLC; format: biochemical; settings: estimated, based on HPLC measurements
T1 sequence (P32099 1-338): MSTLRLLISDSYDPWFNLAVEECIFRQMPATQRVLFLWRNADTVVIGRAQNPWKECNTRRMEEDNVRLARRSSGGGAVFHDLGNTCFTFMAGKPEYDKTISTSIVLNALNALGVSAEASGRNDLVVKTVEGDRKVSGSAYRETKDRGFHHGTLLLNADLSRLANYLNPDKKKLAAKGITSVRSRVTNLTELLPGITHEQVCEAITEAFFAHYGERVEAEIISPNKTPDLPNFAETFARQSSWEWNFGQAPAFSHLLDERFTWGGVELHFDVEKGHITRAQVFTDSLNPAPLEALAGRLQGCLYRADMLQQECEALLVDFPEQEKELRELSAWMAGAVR
Method: Various concentrations of synthetic LAP2 peptide (not a fusion protein) were lipoylated with 50 nM Lp1A, 750 μM lipoic acid, and 3 mM ATP, and initial reaction rates were measured by HPLC. […] Measurements were performed in triplicate.
Using HPLC to quantify product formation, the kcat and Km values were measured for Lp1A-catalyzed lipoylation of a synthetic LAP2 peptide (without an attached fusion protein).
To measure the kcat and Km values for lipoylation, 50 nM Lp1A was combined with 750 μM lipoic acid, 2 mM ATP, and 5 mM magnesium acetate in DPBS. Varying concentrations of LAP2 (5.5, 11, 22, 44, 88, 176, or 352 μM) were used; 60 μL aliquots were removed from the 30° C. reactions at 5 min intervals, up to 20 min, and quenched with 180 mM EDTA (final concentration). HPLC was used to determine the amount of product in each aliquot, and kinetic parameters were extracted using the Michaelis-Menten equation as described previously.^13,28

Lp1A [2] = molecular target: T2, Lp1A (Escherichia coli, UniProt P32099); assay: Cell surface lipoylation of CFP-TM fusion constructs on mammalian cells; format: cell-based; settings: HEK cells, CFP-TM fusions, 1 μM Lp1A, 10 min
Method: FIG. 8 depicts cell surface lipoylation of LAP4.3 vs. LAP4.3D. HeLa cells expressing either LAP4.3-CFP-TM or LAP4.3D-CFP-TM were lipoylated with 1 μM Lp1A for 10 minutes. Lipoylation was detected with Alexa568-conjugated anti-lipoic acid antibody.
However, expression levels of intracellular proteins are similar, whether fused to a LAP sequence or E2p. […] Scale bar, 10 μm. […] Single cell mean fluorescein/CFP intensity ratios were tabulated for >160 cells from >18 fields of view.
Second, the LAPs were compared in a cell surface lipoylation assay (FIG. 9). CFP-TM fusion constructs were expressed in human embryonic kidney 293 (HEK) cells, and lipoylation was carried out by purified Lp1A enzyme added to the media. After 10 min of labeling, lipoylated cell surface proteins were imaged using antilipoic acid antibody. […] To quantitatively compare the labeling efficiencies of all the LAP sequences, lipoylation signal (as measured by antibody staining intensity) was plotted against CFP signal for single cells.

Lp1AW37A = Lp1AW37A (Escherichia coli, UniProt P32099, W38A); settings: HEK cells, Lp1AW37A and 11-Br 5 min, QD605-HaloTag 5 min
Lp1AW37A, sequence (P32099 whole entry W38A): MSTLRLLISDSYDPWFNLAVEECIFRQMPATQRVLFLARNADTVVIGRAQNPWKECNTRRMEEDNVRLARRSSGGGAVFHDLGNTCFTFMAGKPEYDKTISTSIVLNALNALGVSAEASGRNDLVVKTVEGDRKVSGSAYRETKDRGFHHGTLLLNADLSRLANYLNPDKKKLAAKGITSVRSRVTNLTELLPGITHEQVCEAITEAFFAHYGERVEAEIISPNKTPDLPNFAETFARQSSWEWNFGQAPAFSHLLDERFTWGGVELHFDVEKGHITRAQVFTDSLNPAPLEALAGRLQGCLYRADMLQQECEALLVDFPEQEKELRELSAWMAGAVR
Method: QD605 emission is shown in the top row. Merged GFP and DIC (differential interference contrast) images are shown in the bottom row. Negative controls are shown with ATP or Lp1A omitted. Scale bars, 10 μm.
HEK 293T cells were transfected with LAP2-GFP-LDLR plasmid using Lipofectamine 2000. After 24 h in growth media (Dulbecco's Modified Eagle Medium (DMEM) with 10% fetal bovine serum (FBS)) at 37° C., enzymatic ligation of 11-Br was performed in DPBS containing 10 μM Lp1A(W37A), 500 μM 11-Br, 1 mM ATP, 5 mM Mg(OAc)2 and 1% (w/v) BSA (Fraction V, EMD) as a blocking agent for 5 min at room temperature. Cells were then rinsed three times with DPBS followed by treatment with 50 nM HaloTag-QD60531 in DPBS containing 1% BSA for 5 min at room temperature. After another three rinses with DPBS, cells were imaged in the same buffer on a Zeiss Axio Observer.Z1 inverted epifluorescence microscope using a 40X oil-immersion lens. […] Fluorescence images were normalized to the same intensity ranges.

Lp1A [3] = molecular target: T2, Lp1A; settings: Azide 7 probe; cited from earlier work

Sequence: DEVLVEIETDKAVLEVPGGEEE [LAP1]
- Km [1]: > 200 µM
- cell surface lipoylation (antilipoic acid antibody imaging) (Lp1A [2]): labeling was not detected
- QD605 labeling at the cell surface (Lp1AW37A): undetectable
- kcat for Azide 7 ligation (Lp1A [3]): 0.048 s⁻¹
